Key:
THP-1 cells = assay: TNF-α production upon compound treatment of THP-1 cells; type: cell-based; settings: FIG. 2
TLR4 = biological target: T1, TLR4 (Mus musculus, UniProt Q9JHF9+Q9QUK6); assay: TLR4 agonist activity, stimulated TNF-alpha release in mouse macrophages; type: cell-based; settings: for TLR4 agonist efficacy: relative to neoseptin-1 or LPS
T1 construct: measuring the stimulated TNF-alpha release in mouse macrophages; endogenous in cells; host or cells: mouse macrophages
T1 sequence (Q9QUK6 26-835): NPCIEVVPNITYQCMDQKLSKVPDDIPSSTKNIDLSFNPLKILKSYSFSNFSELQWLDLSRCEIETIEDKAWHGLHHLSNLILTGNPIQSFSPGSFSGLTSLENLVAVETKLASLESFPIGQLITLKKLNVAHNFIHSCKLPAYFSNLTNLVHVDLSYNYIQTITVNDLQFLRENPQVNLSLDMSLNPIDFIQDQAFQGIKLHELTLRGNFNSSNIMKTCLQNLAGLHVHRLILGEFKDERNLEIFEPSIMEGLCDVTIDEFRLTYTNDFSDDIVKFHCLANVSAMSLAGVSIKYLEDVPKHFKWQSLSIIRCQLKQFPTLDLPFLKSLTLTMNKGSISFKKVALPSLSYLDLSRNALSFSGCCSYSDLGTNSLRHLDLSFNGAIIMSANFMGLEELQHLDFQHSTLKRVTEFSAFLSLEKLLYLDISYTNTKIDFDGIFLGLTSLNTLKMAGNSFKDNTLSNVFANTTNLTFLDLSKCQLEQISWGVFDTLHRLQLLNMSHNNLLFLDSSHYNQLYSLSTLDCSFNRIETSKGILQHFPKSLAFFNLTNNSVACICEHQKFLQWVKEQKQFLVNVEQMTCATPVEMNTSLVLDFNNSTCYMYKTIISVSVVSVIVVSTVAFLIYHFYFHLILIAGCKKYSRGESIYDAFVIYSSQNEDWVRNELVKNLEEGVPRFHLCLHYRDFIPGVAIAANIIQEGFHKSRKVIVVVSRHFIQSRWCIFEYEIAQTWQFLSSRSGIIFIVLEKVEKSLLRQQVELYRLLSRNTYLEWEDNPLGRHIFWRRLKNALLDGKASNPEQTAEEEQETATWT
T1 sequence (Q9JHF9 19-160): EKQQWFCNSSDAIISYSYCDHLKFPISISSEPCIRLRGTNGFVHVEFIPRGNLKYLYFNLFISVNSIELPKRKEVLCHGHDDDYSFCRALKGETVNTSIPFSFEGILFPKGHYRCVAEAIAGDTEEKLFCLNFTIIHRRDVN
Source text: In efforts to improve the TLR4 agonist activity of an initial screening lead, neoseptin-1 (below), measuring the stimulated TNF-alpha release in mouse macrophages, Compound 125-03, used herein as illustrative of the contemplated compounds, emerged as a key compound capable of stimulating the immune response (below). […] [TLRs […] have been lost from the mouse genome, and TLRs 11, 12 and 13 have been lost from the human genome. Beutler, Blood, 113:1399-1407 (2009).]

C57BL/6J mice = assay: Adjuvant effect with ovalbumin, intramuscular immunization, serum OVA-specific IgG by ELISA; type: in vivo, mouse
Description: In FIG. 3, adjuvants were mixed with ovalbumin (OVA, 100 μg) and injected intramuscularly into C57BL/6J mice at the indicated doses. Two immunizations were administered with a booster given at 7 days.
FIG. 4 provides a series of graphs that show anti-olvalbumin titers at 14 days post immunization using adjuvants with ovalbumin (OVA, 100 μg) and injected intramuscularly into C57BL/6J mice. The adjuvants used were Compound 125-03, neoseptin-3 (below), LPS, MPLA (monophosphoryl lipid A from […]

TLR ligands = assay: Mechanistic studies: responses to TLR ligands; type: cell-based; settings: TLR ligands including neoseptin-3
mouse macrophages = assay: TNF-α production in macrophages from mice with germline mutations or knockouts of TLR and signaling genes; type: cell-based
Source text: Induced TNF-α production was established with the use of macrophages from mice bearing germline genetic defects or knockouts of each of the genes encoding the TLRs or their downstream signaling molecules uniquely available in the laboratories of Professor Bruce Beutler, (University of Texas Southwestern Medical Center, Dallas, Tex.). See, (a) mutagenetix.utsouthwestern.edu.; (b) Arnold et al., (2012) ENU-induced phenovariance in mice: Inferences from 587 mutations. BMC Res. Notes. 5, 577-0500-5-577.

[1] = Overt toxicity when used as an adjuvant at maximum doses; type: in vivo; settings: maximum doses capable of administration, compared with LPS
Cyld = biological target: T2, Cyld (Homo sapiens, UniProt Q9NQC7); assay: In vitro assay of Cyld activity; type: biochemical
T2 sequence (Q9NQC7 1-956): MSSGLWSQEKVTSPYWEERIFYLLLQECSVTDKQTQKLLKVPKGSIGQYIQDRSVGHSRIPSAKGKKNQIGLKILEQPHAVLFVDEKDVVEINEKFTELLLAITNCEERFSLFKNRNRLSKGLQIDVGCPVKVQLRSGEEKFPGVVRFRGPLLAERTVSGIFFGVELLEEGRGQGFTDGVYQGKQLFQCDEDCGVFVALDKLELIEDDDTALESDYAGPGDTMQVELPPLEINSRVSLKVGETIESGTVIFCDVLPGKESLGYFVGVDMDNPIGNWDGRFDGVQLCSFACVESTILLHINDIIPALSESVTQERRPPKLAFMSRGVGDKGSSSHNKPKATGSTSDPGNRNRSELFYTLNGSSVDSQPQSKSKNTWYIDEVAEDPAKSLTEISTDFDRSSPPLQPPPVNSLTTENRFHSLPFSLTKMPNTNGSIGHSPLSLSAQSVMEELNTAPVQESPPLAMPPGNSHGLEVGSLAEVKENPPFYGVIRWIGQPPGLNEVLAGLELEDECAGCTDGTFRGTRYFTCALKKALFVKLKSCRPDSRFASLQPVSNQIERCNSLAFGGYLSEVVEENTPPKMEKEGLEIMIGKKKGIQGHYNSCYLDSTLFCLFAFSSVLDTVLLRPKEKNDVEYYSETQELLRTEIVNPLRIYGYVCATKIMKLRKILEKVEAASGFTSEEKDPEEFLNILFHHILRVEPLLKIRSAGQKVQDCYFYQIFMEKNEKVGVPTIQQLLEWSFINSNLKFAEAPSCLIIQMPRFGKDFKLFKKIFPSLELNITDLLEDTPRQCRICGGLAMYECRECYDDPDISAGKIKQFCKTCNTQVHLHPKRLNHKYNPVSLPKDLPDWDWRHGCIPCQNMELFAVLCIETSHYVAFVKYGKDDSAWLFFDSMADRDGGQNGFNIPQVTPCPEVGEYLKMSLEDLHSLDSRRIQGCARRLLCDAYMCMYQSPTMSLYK

TLR4 agonism (TLR4)	effect on Cyld activity (Cyld)	Structure (SMILES)	release of TNF-alpha from differentiated human THP-1 cells (THP-1 cells)	TLR4 agonist efficacy (TLR4)	concentration needed for an antibody response similar to Compound 125-03 (C57BL/6J mice; at fourteen days)	effect on responses to TLR ligands (TLR ligands)	adjuvant activity, serum OVA-specific IgG (C57BL/6J mice; OVA 100 μg, intramuscular, booster at 7 days, day 35 post-immunization, FIG. 3)	adjuvant activity compared with alum (C57BL/6J mice; anti-ovalbumin titers, 14 days post immunization, concentrations used, FIG. 4)	TLR dependence of stimulated TNF-alpha production (mouse macrophages; macrophages from mice with disabling mutations or knockouts of TLR genes, FIG. 1)	stimulating the release of TNF-alpha in mouse macrophages (mouse macrophages; mouse macrophages)	overt toxicity [1]
TLR4-agonist	–	CC(C)(C)OC(=O)[C@H](CCc1ccccc1)NC(=O)c1ccc(N)c(CCc2ccc(O)cc2)c1 [neoseptin-3, reference compound]	not active in human cells	nearly matching the efficacy of LPS	about twice the concentration	–	–	–	–	–	–
–	directly inhibits Cyld activity	O=C(NCCCc1ccccc1)c1ccc(NC(=O)c2cc3ccccc3o2)c(OCCc2ccc(O)cc2)c1 [Compound 125-03, N-(2-(4-Hydroxyphenethoxy)-4-((3-phenylpropyl)-carbamoyl)phenyl)benzofuran-2-carboxamide]	dose dependent activity	–	–	markedly increased responses to TLR ligands	robust, dose-dependent adjuvant activity	more effective than alum	independent of the TLRs including TLR4/MD-2	active	did not display the overt toxicity
–	–	N[C@@H](Cc1ccccc1)C(=O)Nc1ccc(C(=O)N[C@@H](CCc2ccccc2)C(=O)O)cc1CCc1ccc(O)cc1 [MM-1-88]	–	significant enhancement in TLR4 agonist efficacy	–	–	–	–	–	–	–

— US20170224653A1, “TLR-INDEPENDENT SMALL MOLECULE ADJUVANTS” (The Scripps Research Institute, priority 2014, published 2017)
